# Results as given in ChEMBL document CHEMBL1142930, “Cyathane diterpenes from Sarcodon cyrneus and evaluation of their activities of neuritegenesis and nerve growth factor production” (2007).
# The source made the active and inactive calls. No cut-off for these calls is given here.
# What was measured:
# [1] = Induction of NGF gene expression in human 1321N1 cells at 200 uM relative to control; assay type: functional
# PC-12 = test: Stimulation of neurite outgrowth in rat PC12 cells assessed as morphological change at 200 uM after 24 hrs; assay type: functional, cell-based
smiles,measurement,setting,value
CC(C)C1=C2C3=CC=C(C=O)C[C@H](O)[C@]3(C)CC[C@@]2(C)[C@H](O)C1 [CYRNEINE A],Fold change,[1],3.8
CC(C)C1=CC(=O)[C@]2(C)CC[C@]3(C)C(=CC=C(C=O)C[C@@H]3O)[C@]12O [CYRNEINE B],Fold change,[1],7.3
CC(C)C1=CC(=O)[C@]2(C)CC[C@@]3(C)C(=O)CC(C=O)=CC[C@@H]3[C@H]12 [CYRNEINE C],Activity,PC-12,inactive
same,Fold change,[1],2.7
CC(C)C1=CC(=O)[C@]2(C)CC[C@@]3(C)C(=O)CC(C=O)=CC[C@@H]3[C@]12O [CYRNEINE D],Activity,PC-12,inactive
same,Fold change,[1],1.3
CC(C)C1=CC(=O)[C@]2(C)CC[C@]3(C)C(=CC=C(C=O)C[C@@H]3O)[C@H]12 [GLAUCOPINE C],Activity,PC-12,inactive
same,Fold change,[1],3.5
